PubChem BioAssay (NCI)
Values joined by “and” are separate entries in the source; they are usually repeats but may differ in a detail not shown here. Equal entries are not always repeated.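 The compound was tested at five concentrations on cells cultured in 96-well plates, with a 48-hour exposure period. GI50: concentration for 50% inhibition of growth. TGI marks complete inhibition of growth.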

Tests used:
Test in all cases: growth of human tumour cells (NCI), 48 h
[1] = tested on: SN12C renal
[2] = tested on: HOP-62 NSCLC
[3] = tested on: UACC-257 melanoma
[4] = tested on: 786-0 renal
[5] = tested on: OVCAR-8 ovarian
[6] = tested on: KM12 colon
[7] = tested on: HCC-2998 colon
[8] = tested on: MDA-N
[9] = tested on: PC-3 prostate
[10] = tested on: BT-549 breast
[11] = tested on: SW-620 colon
[12] = tested on: SK-MEL-5 melanoma
[13] = tested on: SNB-75 CNS
[14] = tested on: U251 CNS
[15] = tested on: OVCAR-3 ovarian
[16] = tested on: LOX IMVI melanoma
[17] = tested on: HCT-15 colon
[18] = tested on: UACC-62 melanoma
[19] = tested on: DU-145 prostate
[20] = tested on: RXF 393 renal
[21] = tested on: MDA-MB-435
[22] = tested on: TK-10 renal
[23] = tested on: MOLT-4 leukemia
[24] = tested on: SR leukemia
[25] = tested on: NCI/ADR-RES ovarian
[26] = tested on: CAKI-1 renal
[27] = tested on: NCI-H23 lung
[28] = tested on: SNB-19 CNS
[29] = tested on: NCI-H226 lung
[30] = tested on: IGROV1 ovarian
[31] = tested on: COLO 205 colon
[32] = tested on: SK-MEL-28 melanoma
[33] = tested on: HCT-116 colon
[34] = tested on: HL-60(TB) leukemia
[35] = tested on: NCI-H460 lung
[36] = tested on: A498 renal
[37] = tested on: HS 578T breast
[38] = tested on: MDA-MB-231 breast
[39] = tested on: NCI-H522 lung
[40] = tested on: MCF7 breast
[41] = tested on: UO-31 renal
[42] = tested on: SF-295 CNS
[43] = tested on: SF-268 CNS
[44] = tested on: EKVX NSCLC
[45] = tested on: MALME-3M melanoma
[46] = tested on: ACHN renal
[47] = tested on: K-562 leukemia
[48] = tested on: HT29 colon
[49] = tested on: OVCAR-4 ovarian
[50] = tested on: T-47D breast
[51] = tested on: RPMI-8226 leukemia
[52] = tested on: OVCAR-5 ovarian
[53] = tested on: SK-OV-3 ovarian
[54] = tested on: HOP-92 NSCLC
[55] = tested on: CCRF-CEM leukemia
[56] = tested on: A549 NSCLC
[57] = tested on: M14 melanoma
[58] = tested on: SK-MEL-2 melanoma
[59] = tested on: SF-539 CNS

COc1ccc(-n2c(C)nc3ccc(N=Cc4ccccc4)cc3c2=O)cc1
TGI [1]: > 100 µM
TGI [2]: > 100 µM
TGI [3]: > 100 µM
TGI [4]: > 100 µM
TGI [5]: > 100 µM
TGI [6]: > 100 µM
TGI [7]: > 100 µM
TGI [8]: > 100 µM
TGI [9]: > 100 µM
TGI [10]: > 100 µM
TGI [11]: > 100 µM
TGI [12]: > 100 µM
TGI [13]: > 100 µM
TGI [14]: > 100 µM
TGI [15]: > 100 µM
TGI [16]: > 100 µM
TGI [17]: > 100 µM
TGI [18]: > 100 µM
TGI [19]: > 100 µM
TGI [20]: > 100 µM
TGI [21]: > 100 µM
TGI [22]: > 100 µM
TGI [23]: > 100 µM
TGI [24]: > 100 µM
TGI [25]: > 100 µM
TGI [26]: > 100 µM
TGI [27]: > 100 µM
TGI [28]: > 100 µM
TGI [29]: > 100 µM
TGI [30]: > 100 µM
TGI [31]: > 100 µM
TGI [32]: > 100 µM
TGI [33]: > 100 µM
TGI [34]: > 100 µM
TGI [35]: > 100 µM
TGI [36]: > 100 µM
TGI [37]: > 100 µM
TGI [38]: > 100 µM
TGI [39]: > 100 µM
TGI [40]: > 100 µM
TGI [41]: > 100 µM
TGI [42]: > 100 µM
TGI [43]: > 100 µM
TGI [44]: > 100 µM
TGI [45]: > 100 µM
TGI [46]: > 100 µM
TGI [47]: > 100 µM
TGI [48]: > 100 µM
TGI [49]: > 100 µM
TGI [50]: > 100 µM
TGI [51]: > 100 µM
TGI [52]: > 100 µM

COc1cc2c(cc1OCCN1C(=O)c3cccc4cccc(c34)C1=O)N=C[C@@H]1CCCN1C2=O
TGI [1]: 14.7 µM
TGI [2]: 47.5 µM
GI50 [3]: 18 µM
TGI [3]: 19 µM and 35.8 µM
GI50 [4]: 16.5 µM
TGI [4]: 14.7 µM and 33.9 µM
GI50 [5]: 16.6 µM
TGI [5]: 17.1 µM and 36.7 µM
GI50 [6]: 12.4 µM
TGI [6]: 50 µM and 24.9 µM
GI50 [7]: 14.5 µM
TGI [7]: 15.6 µM and 27.6 µM
GI50 [8]: 20.3 µM
TGI [8]: 14.8 µM and 45.8 µM
GI50 [9]: 15 µM
TGI [9]: 13.6 µM and 28.2 µM
TGI [10]: 16.9 µM
TGI [53]: 46.5 µM
GI50 [11]: 17.2 µM
TGI [11]: 15.8 µM and > 100 µM
GI50 [12]: 13.1 µM
TGI [12]: 15.5 µM and 28.2 µM
GI50 [54]: 19.5 µM
TGI [54]: 17.3 µM and 55.4 µM
TGI [13]: 45 µM
GI50 [14]: 14.2 µM
TGI [14]: 12.6 µM and > 100 µM
GI50 [15]: 14.9 µM
TGI [15]: 13.1 µM and 28.2 µM
GI50 [55]: 1.44 µM
TGI [55]: 23.1 µM and 19.5 µM
TGI [16]: 12.3 µM
GI50 [17]: 18.6 µM
TGI [17]: 21.4 µM and 40.2 µM
GI50 [18]: 17.8 µM
TGI [18]: 14.9 µM and 37.5 µM
GI50 [19]: 18.1 µM
TGI [19]: 17.4 µM and 35.9 µM
GI50 [20]: 20.9 µM
TGI [20]: 15 µM and 36.3 µM
GI50 [21]: 16 µM
TGI [21]: 25 µM and 35.9 µM
TGI [22]: 14.8 µM
GI50 [56]: 17.7 µM
TGI [56]: 17.1 µM and 53.1 µM
GI50 [23]: 42.2 µM
TGI [23]: 11 µM and > 100 µM
TGI [24]: > 100 µM
GI50 [25]: 22.5 µM
TGI [25]: 45.8 µM and 56.3 µM
GI50 [26]: 18.8 µM
TGI [26]: 19.8 µM and 36.2 µM
GI50 [57]: 22.5 µM
TGI [57]: 15.7 µM and 70.6 µM
GI50 [58]: 16.6 µM
TGI [58]: 14.5 µM and 32.7 µM
GI50 [27]: 16.8 µM
TGI [27]: 20.2 µM and 32.3 µM
GI50 [28]: 37.7 µM
TGI [28]: 30.2 µM and > 100 µM
TGI [29]: 32.4 µM
GI50 [30]: 12.4 µM
TGI [30]: 11.6 µM and 25.6 µM
GI50 [31]: 14.9 µM
TGI [31]: 15.1 µM and 30.6 µM
GI50 [32]: 19.7 µM
TGI [32]: 16.3 µM and 49.3 µM
GI50 [33]: 20.6 µM
TGI [33]: 14.5 µM and 45.4 µM
GI50 [35]: 15.5 µM
TGI [35]: 13.9 µM and 29.9 µM
GI50 [36]: 19.6 µM
TGI [36]: 16.6 µM and 42.8 µM
GI50 [37]: 15.2 µM
TGI [37]: 19.9 µM and 35.8 µM
GI50 [38]: > 100 µM
TGI [38]: 14.6 µM and > 100 µM
GI50 [39]: 1.58 µM
TGI [39]: 4.51 µM and 10.2 µM
GI50 [40]: 13.6 µM
TGI [40]: 18.2 µM and > 100 µM
GI50 [41]: 16.8 µM
TGI [41]: 15.8 µM and 30.5 µM
GI50 [42]: 32 µM
TGI [42]: 50 µM and > 100 µM
TGI [59]: 17.3 µM
TGI [43]: 15.3 µM
GI50 [44]: 13.8 µM
TGI [44]: 18.3 µM and 26.7 µM
GI50 [45]: 11.7 µM
TGI [45]: 15.7 µM and 24.5 µM
GI50 [46]: 19 µM
TGI [46]: 14.9 µM and 33 µM
GI50 [47]: 7.63 µM
TGI [47]: 10.9 µM and > 100 µM
GI50 [48]: 14.4 µM
TGI [48]: 16.9 µM and 29.8 µM
TGI [49]: 50 µM and 39 µM
GI50 [50]: 18.9 µM
TGI [50]: 28.2 µM and > 100 µM
GI50 [51]: 26 µM
TGI [51]: 32 µM and > 100 µM
GI50 [52]: 23.9 µM
TGI [52]: 18.1 µM and 49.9 µM
